Measurements reported in ChEMBL document CHEMBL6153171, “Redefining Antifungal Treatment: The Innovation of Metal-Based Compounds” (2025).
In brackets after ≈: the same amount, converted by molar mass. Blank lines part the entries; values can stand above or below the molecule they belong to.

Columns and labels:
Type in all cases: functional
Candida tropicalis [1] = experiment: Anti-fungal activity against Candida tropicalis assessed as inhibition of fungal growth
Candida tropicalis [2] = experiment: Antifungal activity against Candida tropicalis ATCC 1369 assessed as inhibition of fungal growth by CLSI protocol based microdilution method
Epidermophyton floccosum = experiment: Antifungal activity against Epidermophyton floccosum
Trichophyton violaceum = experiment: Antifungal activity against Trichophyton violaceum
Nakaseomyces glabratus = experiment: Antifungal activity against Candida glabrata assessed as reduction in fungal growth; parameters: concentration or dose not given beside the values
Candida albicans [3] = experiment: Antifungal activity against Candida albicans ATCC 10231 assessed as fungal growth inhibition incubated for 24 hrs by CLSI protocol based microbroth dilution assay
Candida albicans [4] = experiment: Antifungal activity against Candida albicans ATCC 10231 assessed as growth inhibition measured after 48 hrs by CLSI based method
Trichophyton rubrum = experiment: Antifungal activity against Trichophyton rubrum assessed as fungal growth inhibition incubated for 48 hrs by microplate reader assay
[5] = test system: Trichophyton mentagrophytes; experiment: Antifungal activity against Trichophyton mentagrophytes
[6] = test system: Trichophyton interdigitale; experiment: Antifungal activity against Trichophyton interdigitale
Trichophyton tonsurans = experiment: Antifungal activity against Trichophyton tonsurans
Candida albicans [7] = experiment: Antifungal activity against Candida albicans assessed as reduction in microbial growth
Candida albicans [8] = experiment: Antifungal activity against fluconazole-resistant Candida albicans MFBF 11100 assessed as inhibition of fungal growth incubated for 48 hrs by liquid medium dilution method
Candida albicans [9] = experiment: Antifungal activity against fluconazole-resistant Candida albicans ATCC 10213 assessed as inhibition of fungal growth incubated for 48 hrs by liquid medium dilution method
Cryptococcus neoformans [10] = experiment: Antifungal activity against Cryptococcus neoformans ATCC 34877 assessed as reduction in fungal growth incubated for 72 hrs by liquid based microdilution method
Cryptococcus neoformans [11] = experiment: Antifungal activity against Cryptococcus neoformans H99 assessed as reduction in fungal growth incubated for 48 hrs by liquid based microdilution method
[12] = Antifungal activity against Cryptococcus gattii VGI ATCC LMM 818 assessed as reduction in fungal growth incubated for 72 hrs by liquid based microdilution method
[13] = Antifungal activity against Cryptococcus gattii VGI ATCC 14116 assessed as reduction in fungal growth incubated for 72 hrs by liquid based microdilution method
Cryptococcus neoformans [14] = experiment: Antifungal activity against Cryptococcus neoformans ATCC 34877 assessed as reduction in fungal growth incubated for 48 hrs by liquid based microdilution method
Candida albicans [15] = experiment: Antifungal activity against Candida albicans assessed as fungal growth inhibition
Aspergillus flavus [16] = experiment: Antifungal activity against Aspergillus flavus assessed as fungal growth inhibition
Aspergillus flavus [17] = experiment: Antifungal activity against Aspergillus flavus assessed as reduction in fungal growth incubated for 24 hrs by two-fold serial dilution method; parameters: scale not given: the % may be the effect or the level left
Candida albicans [18] = experiment: Antifungal activity against Candida albicans ATCC 2091 assessed as reduction in fungal growth
Microsporum canis = experiment: Antifungal activity against Microsporum canis assessed as inhibition of fungal growth; parameters: scale not given: the % may be the effect or the level left
Candida albicans [19] = experiment: Antifungal activity against Candida albicans assessed as fungal growth inhibition at 5 ug/ml incubated for 24 hrs by CLSI protocol based microbroth dilution assay relative to control; parameters: scale not given: the % may be the effect or the level left; settings: dose 5 µg/ml
Candida albicans [20] = experiment: Antifungal activity against Candida albicans SC5314 assessed as reduction in fungal growth incubated for 72 hrs by broth micro-dilution method
Candida albicans [21] = experiment: Antifungal activity against Candida albicans
Aspergillus flavus [22] = experiment: Antifungal activity against Aspergillus flavus ATCC 16870 assessed as inhibition of growth incubated for 48 hrs by two-fold serial dilution method
Aspergillus flavus [23] = experiment: Antifungal activity against Aspergillus flavus

Compound: Cc1ccc(S(=O)(=O)Nc2ncccn2)cc1
Activity (Nakaseomyces glabratus): 53%

Compound: NS(=O)(=O)c1ccc(/N=C/c2cc(Cl)ccc2O)cc1
Activity (Nakaseomyces glabratus): 47%

Compound: O=C(O)c1c(O)c(F)c(F)c(F)c1F
MIC (Trichophyton rubrum): 25 µg/mL (≈ 119 µM)
MIC [5]: 25 µg/mL (≈ 119 µM)
MIC [6]: 25 µg/mL (≈ 119 µM)
MIC (Trichophyton tonsurans): 25 µg/mL (≈ 119 µM)

Compound: O=C(O)c1cc(F)c(F)c(F)c1O
MIC (Candida albicans [7]): 50 µg/mL

Compound: COc1ccc(/C=N/NC(=O)c2cccnc2)c(O)c1
IC90 (Candida albicans [8]): 100 nM
IC90 (Candida albicans [9]): 180 nM

Compound: NC(=S)N/N=C(\N)c1ccccn1
MIC90 (Cryptococcus neoformans [10]): 26.3 µM (≈ 5.13 µg/mL)
MIC90 (Cryptococcus neoformans [11]): 13.1 µM (≈ 2.55 µg/mL)
MIC90 [12]: 52.5 µM (≈ 10.3 µg/mL)
MIC90 [13]: 26.3 µM (≈ 5.13 µg/mL)

Compound: CCNC(=S)N/N=C(\N)c1ccccn1
MIC90 (Cryptococcus neoformans [11]): 13.1 µM (≈ 2.92 µg/mL)

Compound: CCCN(CCC)C(=S)NC(=O)c1ccc(Br)o1
Activity (Nakaseomyces glabratus): 42%
Activity (Aspergillus flavus [17]): 52%

Compound: CCN(C(=S)NC(=O)c1ccc(Br)o1)C(C)C
Activity (Aspergillus flavus [17]): 50%

Compound: CCCN(CCC)C(=S)NC(=O)c1ccc(C)s1
Activity (Microsporum canis): 63%

Compound: CNCCC/N=C/c1c(O)ccc2c(C)cc(=O)oc12
MIC (Candida albicans [18]): 12.5 µg/mL (≈ 45.6 µM)

Compound: CCCN(CCC)C(=S)NC(=O)c1cccs1
Activity (Candida albicans [19]): 50%

Compound: CCN(C(=S)NC(=O)c1cccs1)C(C)C
Activity (Nakaseomyces glabratus): 43%
Activity (Candida albicans [19]): 53%

Compound: CCN(C(=S)NC(=O)c1ccc(C)s1)C(C)C
Activity (Nakaseomyces glabratus): 62%
Activity (Aspergillus flavus [17]): 57%

The remaining lines, values ahead:

MIC (Candida tropicalis [1]): ≤ 12.7 µM
MIC (Candida tropicalis [2]): ≤ 20.4 µM
Compound: Cc1ccc(-c2ccc(-c3ccccn3)nc2)cc1

MIC (Epidermophyton floccosum): 26.9 µM (≈ 6.25 µg/mL)
MIC (Trichophyton violaceum): 26.9 µM (≈ 6.25 µg/mL)
Compound: c1ccc(-c2ccc(-c3ccccn3)nc2)cc1

MIC (Candida albicans [3]): 6.2 µM (≈ 2.46 µg/mL)
MIC (Candida albicans [4]): 10.7 µM (≈ 4.24 µg/mL)
Compound: C/C(=N\NC(=S)Nc1ccc(I)cc1)c1ccccn1

MIC (Candida albicans [4]): 10.7 µM (≈ 3.37 µg/mL)
Compound: C/C(=N\NC(=S)Nc1ccc([N+](=O)[O-])cc1)c1ccccn1

MIC90 (Cryptococcus neoformans [10]): 52 µM (≈ 10.9 µg/mL)
MIC90 [12]: 52 µM (≈ 10.9 µg/mL)
MIC90 (Cryptococcus neoformans [14]): 2.01 µM (≈ 0.42 µg/mL)
Compound: CNC(=S)N/N=C(\N)c1ccccn1

MIC (Candida albicans [15]): 233 µM (≈ 53.4 µg/mL)
MIC (Aspergillus flavus [16]): 226 µM (≈ 51.7 µg/mL)
Compound: O=c1cc(O)c2c(=O)[nH]c3ccccc3c2o1

MIC (Candida albicans [18]): 12.5 µg/mL (≈ 42.2 µM)
Compound: O=C1N[C@@H](Cc2ccc(/N=C/c3ccccc3O)cc2)CO1

MIC (Candida albicans [20]): 6.25 µg/mL (≈ 23.6 µM)
MIC (Candida albicans [21]): 50 µg/mL (≈ 189 µM)
MIC (Aspergillus flavus [22]): 6.25 µg/mL (≈ 23.6 µM)
MIC (Aspergillus flavus [23]): 6.25 µg/mL (≈ 23.6 µM)
Compound: Oc1ccccc1/N=N/c1ccc(O)c2ccccc12

MIC (Candida albicans [18]): 12.5 µg/mL (≈ 44.9 µM)
Compound: Oc1ccccc1/C=N/c1ccc(Cn2cncn2)cc1
